In patent publication US20230092389A1, “UNIT DOSES, AEROSOLS, KITS, AND METHODS FOR TREATING HEART CONDITIONS BY PULMONARY ADMINISTRATION” (InCarda Therapeutics, Inc., priority 2017, published 2023):
Several values for one entry are separate records, joined by “and”; a condition that tells them apart may be missing. Equal values may be shown once.

What was measured:
[1] = system: pigs with induced atrial fibrillation; test: ACh and burst-pacing induced AF duration, IT instillation, pigs (Example 5); type: in vivo, Yorkshire pigs; details: for AF duration, mean: n=3, no drug 11±0.6
Procedure: At one min after intrapericardial administration of ACh (1 ml of 100 mM), burst pacing was performed to initiate AF in the control cohort (FIG. 60). In the experimental cohort, after ACh and burst-pacing-induced AF, a stable period of 2 min of AF was allowed (FIG. 60). […] Table 12; FIG. 61).

healthy volunteers = details: in vivo
Procedure: 3 cohorts of subjects, in total 34 healthy adult volunteers, were recruited for Part A study.
Part B was an open label non-randomized crossover in a cohort of 6 evaluable healthy adult volunteers.
In addition, the effects of changing posture from semi-recumbent to seated upright, vice-versa and during inhalation on HR and BP were assessed (Cohort 5).

[2] = male, Yorkshire, pig, in vivo, iv, 2 mg/kg
Procedure: The studies were carried out in male Yorkshire pigs (n=9) weighing 36±1.0 kg (mean±SEM). The pigs were pre-anesthetized with telazol (4.7 mg/kg, intramuscular) and subsequently further anesthetized using alpha-chloralose (80 mg/kg, IV bolus, followed by 24 mg/kg/h continuous IV infusion). The animals were intubated and ventilated at a constant rate of 12 breaths/min and tidal volume of 400 ml per stroke.
Simultaneous blood samples were drawn from the pigtail catheter positioned in the LV and from a catheter in the jugular vein.
The samples were centrifuged and frozen at −80° C. until drug level determination was performed using a bioanalytical assay method developed by Climax Laboratories, Inc.

- pH of solution in water (2.6 mg/mL solution): 5.0
- appearance of solution (diltiazem hydrochloride 50 mg/ml, flecainide acetate 30 mg/ml in distilled water): clear with no visible particulate matter
- dose dependence of magnitude of HR increases (healthy volunteers): not dose-dependent
- HR (healthy volunteers; iv, 2 mg/kg): An increase in HR was observed
- systolic and diastolic BP (healthy volunteers; iv, 2 mg/kg): Decreases in systolic and diastolic BP
- time of peak LV and venous plasma levels [2]: 2 min
Structure (SMILES): O=C(NCC1CCCCN1)c1cc(OCC(F)(F)F)ccc1OCC(F)(F)F (stereo not drawn) [flecainide]
- recurrence of AF after restoration of sinus rhythm ([1]; 30-min window of observation): no recurrence of AF occurred
- reduction in AF duration from the untreated condition ([1]; IT 1.5 mg/kg): 73%
- AF duration, mean ([1]; IT 1.5 mg/kg): 3 ± 0.2 min
- AF duration, mean ([1]; IT 1.5 mg/kg, listed as Flecainide): 3 min
- AF duration, individual pigs ([1]; IT 1.5 mg/kg, pigs 239, 236, 238, no drug 12, 10, 12): 3 min (2×) and 4 min
- magnitude of blood pressure changes vs placebo (healthy volunteers): similar
